# Assay results as given in US20110065663A1, “ANTI-CANCER COMBINATION THERAPY” (Katholieke Universiteit Leuven, K.U. Leuven R&D, priority 2008, published 2011).
# Read-outs that look alike come from different tables or passages of the source.
# Columns and labels:
# M. hyorhinis TP = test: TP activity in the medium of MCF-7/HYOR cell cultures (HPLC, conversion of nucleoside to free base); assay type: biochemical, Mycoplasma hyorhinis; details: 200 μM substrate, 37° C.
# Description: (§1) The TP activity of M. hyorhinis and the conversion of dThd, FdUrd, 5′DFUR and TFT to thymine, 5FU, 5FU or TF-thymine respectively were measured by high-pressure liquid chromatography (HPLC) analysis. MCF-7 and MCF-7/HYOR cells were seeded at a density of 20,000 cells/cm^2 in DMEM with 10% FBS. Four days later, the medium was collected and cleared by centrifugation at 1,400 rpm. For some experiments, the medium of MCF-7/HYOR cells was filtered using a 0.1 μm micro filter (Acrodisc syringe filter, PALL Corporation, East Hills, N.Y.) to remove the mycoplasmas from the medium. 600 μl of the medium was incubated with 200 μM of substrate (dThd, 5′DFUR, TFT or FdUrd) at 37° C. in the presence or absence of 10 μM TPi. At different time points (i.e. 0, 15, 30, 60, 120 minutes and 16 hours), 100 μl aliquots were withdrawn, transferred to Eppendorf tubes and heated at 95° C. for 3 min. Next, the samples were rapidly cooled on ice, exposed for 20 min to 200 μl ice-cold methanol and cleared by centrifugation at 15,000 rpm for 15 minutes. As a positive control, an enzyme activity assay with E. coli TP (Sigma) was performed. For this reaction, 0.025 U of TP were incubated with 200 μM of substrate in TP-buffer (10 mM Tris-HCl, pH 7.6, 1 mM EDTA, 2 mM potassium phosphate and 150 mM NaCl) in a total volume of 600 μl. Aliquots of 100 μl were withdrawn from the reaction mixture at several time points and treated as described above. The nucleosides were separated from their nucleobases on a reversed-phase RP-8 column (Merck, Darmstadt, Germany) and quantified by HPLC analysis (Aliance 2690, Waters, Milford, Mass.). The separation was performed by a linear gradient from 100% buffer B (50 mM NaH2PO4 and 5 mM heptane sulfonic acid, pH 3.2), to 20% buffer B and 80% acetonitrile. […] UV-based detection of all nucleosides was performed at 267 nm.
# MCF-7 cells = test: Tumor cell proliferation assay, uninfected MCF-7 cells; assay type: cell-based, human; details: for IC50: uninfected MCF-7; for Ratio (1)/(2) MCF-7: IC50 in the absence of TPi to IC50 in the presence of TPi
# MCF-7/HYOR cell cultures = test: Nucleoside metabolism experiments, distribution of drug-derived radiolabel in MCF-7/HYOR cell cultures; assay type: cell-based, human; details: MCF-7/HYOR; for % of drug-derived radiolabel, In medium, Base / % of drug-derived radiolabel, In medium, Nucleoside / % of drug-derived radiolabel, In the cytosol of the cells, 5′-diphosphate / % of drug-derived radiolabel, In the cytosol of the cells, 5′-monophosphate / % of drug-derived radiolabel, In the cytosol of the cells, 5′-triphosphate / % of drug-derived radiolabel, In the cytosol of the cells, Nucleoside/nucleobase / % of drug-derived radiolabel, Incorporatio into DNA/RNA: 1 μCi, 16 h; for Increase of 5′-monophosphate levels in the presence of TPi: with versus without TPi
# [1] = Conversion of nucleosides in the medium of uninfected MCF-7 cells; assay type: biochemical, human; details: even after 24 hours of incubation; data not shown
# Description: as §1, with “At different time points (i.e. 0, 15, 30, 60, 120 minutes and 16 hours), 100 μl aliquots were withdrawn, transferred to Eppendorf tubes and heated at 95° C. for 3 min.” left out
Compound,Percent conversion of nucleoside to the free pyrimidine base in MCF-7/HYOR medium (M. hyorhinis TP; 2 hours) [%],Percent conversion of nucleoside to the free pyrimidine base in MCF-7/HYOR medium (M. hyorhinis TP; 16 hours) [%],"IC50 (MCF-7 cells; Homo sapiens, MCF7, 96 h, no TPi, 4 days, read-out: IC50 MCF-7 As such) [nM]","IC50 (MCF-7 cells; Homo sapiens, MCF7, with 10 μM TPi, read-out: IC50 MCF-7 +TPi (10 μM)) [nM]",Ratio (1)/(2) MCF-7 (MCF-7 cells),"% of drug-derived radiolabel, In medium, Base (MCF-7/HYOR cell cultures) [%]","% of drug-derived radiolabel, In medium, Nucleoside (MCF-7/HYOR cell cultures) [%]","% of drug-derived radiolabel, In the cytosol of the cells, 5′-diphosphate (MCF-7/HYOR cell cultures) [%]","% of drug-derived radiolabel, In the cytosol of the cells, 5′-monophosphate (MCF-7/HYOR cell cultures) [%]","% of drug-derived radiolabel, In the cytosol of the cells, 5′-triphosphate (MCF-7/HYOR cell cultures) [%]","% of drug-derived radiolabel, In the cytosol of the cells, Nucleoside/nucleobase (MCF-7/HYOR cell cultures) [%]","% of drug-derived radiolabel, Incorporatio into DNA/RNA (MCF-7/HYOR cell cultures) [%]",Share incorporated into the nucleic acids in the presence of TPi (MCF-7/HYOR cell cultures),Increase of 5′-monophosphate levels in the presence of TPi (MCF-7/HYOR cell cultures) [fold],Conversion in the medium of uninfected MCF-7 cells [1],"IC50 (MCF-7 cells; no TPi, 4 days, read-out: IC50 MCF-7 As such) [nM]","IC50 (MCF-7 cells; with 10 μM TPi, read-out: IC50 MCF-7 +TPi (10 μM)) [nM]"
"O=c1[nH]c(=O)n([C@H]2C[C@H](O)[C@@H](CO)O2)cc1F [FdUrd, 5-fluoro-2′-deoxyuridine]",43,77,3 ± 2,3 ± 2,1.0,49.5,33.2,0.9,3.5,0.3,11.6,1.0,almost no,18,no conversion,–,–
"O=c1[nH]c(=O)n([C@H]2C[C@H](O)[C@@H](CO)O2)cc1C(F)(F)F [TFT, 5-trifluorothymidine]",8,55,–,–,1.8,56.7,23.3,0.6,6.1,0.6,11.0,1.8,66%,2.7,no conversion,390 ± 120,210 ± 110
